Data on five compounds can be found in patent EP3071301B1, “QUERCUS PLANT EXTRACT AS ACTIVE AGENT WITH SKIN ANTI-AGEING PROPERTIES AND COSMETIC COMPOSITIONS CONTAINING IT” (Charlois Cosmetiques, priority 2013, dated 2015).

In test [1] the target is T1, hyaluronidase bovine (EC 3.2.1.35) (Bos taurus, UniProt Q2YDK3).
T1 sequence (Q2YDK3 36-553): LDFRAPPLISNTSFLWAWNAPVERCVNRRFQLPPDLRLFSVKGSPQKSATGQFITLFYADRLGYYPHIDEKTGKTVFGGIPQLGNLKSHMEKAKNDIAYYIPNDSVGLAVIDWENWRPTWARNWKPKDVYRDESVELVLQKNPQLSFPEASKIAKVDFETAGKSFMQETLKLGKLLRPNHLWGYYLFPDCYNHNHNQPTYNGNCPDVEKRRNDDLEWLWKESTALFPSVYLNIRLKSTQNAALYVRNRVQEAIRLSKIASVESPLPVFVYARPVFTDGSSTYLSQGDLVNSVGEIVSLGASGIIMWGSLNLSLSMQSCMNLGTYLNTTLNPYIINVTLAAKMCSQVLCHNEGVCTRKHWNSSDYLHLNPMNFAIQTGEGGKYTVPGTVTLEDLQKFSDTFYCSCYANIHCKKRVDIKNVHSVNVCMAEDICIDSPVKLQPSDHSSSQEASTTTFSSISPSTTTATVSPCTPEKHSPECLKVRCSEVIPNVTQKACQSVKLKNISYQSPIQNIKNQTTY
The experiment in a line: Hyaluronidase enzymatic activity inhibition (Experiment B). Format: biochemical. As to the method:
L'enzyme est la hyaluronidase bovine (EC 3.2.1.35), préparée tampon phosphate de sodium / chlorure de sodium / BSA, pH 7, et utilisée à 10 U/ml.
Le substrat est l'acide hyaluronique, préparé en tampon phosphate de sodium à pH 5,35 et testé à […].
Les principes actifs selon l'invention et la référence (acide 6-O-palmitoylascorbique, noté APA, testé à 300 µg/ml) sont mis en présence de la hyaluronidase et pré-incubés pendant 10 min à 37 °C sous agitation. L'acide hyaluronique est ensuite ajouté et les mélanges réactionnels sont incubés à 37 °C pendant 2 h. Des conditions contrôles sont réalisées en parallèle en incubant les principes actifs ou la référence en présence du substrat mais en absence de l'enzyme (Contrôle sans enzyme) ou en incubant les principes actifs ou la référence seuls (Contrôle interférence). Il est également réalisé un témoin en incubant l'enzyme seule (Témoin).
La réaction enzymatique est ensuite stoppée par précipitation de l'acide hyaluronique avec une solution tampon contenant de l'albumine de sérum bovin (BSA) à pH 3,75. […] L'activité est inversement proportionnelle à la valeur de DO mesurée.
(§1) Chaque expérience est tripliquée.
(§2) Les résultats sont exprimés en pourcentage d'activité de la hyaluronidase et en pourcentage d'inhibition de l'activité de la hyaluronidase. […]

In test [2] the target is T2, hyaluronidase (EC 3.2.1.35) (Bos taurus, UniProt Q2YDK3).
T2 sequence (Q2YDK3 36-553): T1 sequence (Q2YDK3 36-553)
As to the kind of experiment: Hyaluronidase activity inhibition (Experiment A). The format is biochemical.
Source text: (§3) Le principe actif E2 conforme à l'invention est soumis au test suivant, à des concentrations de 0,1; 0,3; 0,5; 1; 3 % p/p (% en poids de principe actif à tester, par rapport au poids final de milieu contenant le principe actif).
Le substrat est l'acide hyaluronique, testé à 0,04 % en tampon phosphate de sodium.
L'enzyme est la hyaluronidase (EC 3.2.1.35) testée à 10 U/ml en tampon phosphate de sodium / chlorure de sodium / BSA.
Le principe actif selon l'invention et les témoins (vitamine C à 10 mg/l et palmitate d'ascorbyle à 200 µg/ml) sont mis en présence de la hyaluronidase et incubés pendant 10 min à 37 °C sous agitation. L'acide hyaluronique est ensuite ajouté et les mélanges réactionnels sont incubés à 37 °C pendant 2 h. Des conditions contrôles additionnelles sont réalisées en incubant le produit et le substrat en l'absence de l'enzyme, ou en incubant le produit seul correspondant à un contrôle interférence. La réaction enzymatique est ensuite stoppée par précipitation de l'acide hyaluronique avec une solution d'albumine de sérum bovin (BSA). L'absorption (DO) à 540 nm est mesurée à l'aide d'un lecteur de microplaques (ThermoMax, Molecular Devices).
as §1, §2

A short description of test [3]: Hydrogen peroxide assay (Amplex Red Hydrogen Peroxide/Peroxidase kit). The conditions noted are these: hydrogen peroxide; 50 µM; 30 min.
Source text: as §3
L'essai est réalisé au moyen du kit de dosage Amplex® Red Hydrogen Peroxyde/Peroxydase Assay Kit (Molecular Probes®), dont le réactif 10-acétyl-3,7-dihydroxyphénoxazine est utilisé pour déterminer la quantité de peroxyde d'hydrogène présent. Le substrat non coloré réagit avec le peroxyde d'hydrogène (H2O2) dans un rapport stoechiométrique 1:1 pour produire de la résofurine hautement fluorescente. […]
Le principe actif selon l'invention et le BHA (3-tert-butyl-4-hydroxyanisole), en tant que témoin, à une concentration de 50 µM, sont incubés en présence d'H2O2, de réactif Amplex® Red et d'enzyme Horse Radish Peroxydase (HRP) pendant 30 min à température ambiante. Puis la fluorescence est mesurée, pour une longueur d'onde d'excitation de 540 nm et une longueur d'onde d'émission de 590 nm.
Des contrôles d'auto-fluorescence et d'absorption de fluorescence (quenching) sont aussi réalisés pour chaque concentration de principe actif selon l'invention et du témoin. Les contrôles d'absorption de fluorescence sont réalisés en incubant le peroxyde d'hydrogène (H2O2), le réactif Amplex® Redet l'enzyme HRP pendant 30 min. […]

A further test relates to MMP totales. The experiment in a line: Total matrix metalloprotease (MMP) activity inhibition, fluorogenic peptide. The format is biochemical, humains.
Source text: Le principe actif E2 conforme à l'invention est soumis au test suivant, à des concentrations de 1 et 3 % p/p, selon le protocole décrit dans la publication de Sim et al., 2007, Arch Pharm Res, 30(3): 290-298.
Les MMP totales (obtenues selon un protocole standard à partir de surnageants de fibroblastes dermiques humains normaux, irradiés avec des UVB (20 mJ/cm^2)) sont traitées par le mélange inflammatoire acétate de phorbol myristate (PMA) et facteur de nécrose tumorale (TNFα).
Le substrat fluorescent est le peptide fluorogénique décrit dans la publication de Lee et al., 1999, Annals of the New York Academy of Sciences, 878: 635-637, et commercialisé sous la référence M6412 par la société Sigma-Aldrich.
Le principe actif E2 conforme à l'invention ou le témoin (O-phénantroline testée à 0,03; 0,1; 0,3 et 1 mM) sont préincubés pendant 10 min sur glace en présence des MMP totales activées, puis le substrat fluorescent est ajouté. Les plaques ont été incubées pendant 3h à 37°C. Un contrôle d'interférence du composé (composé en présence du mélange réactionnel sans enzyme) et un contrôle « quenching » (mélange réactionnel contenant le substrat et l'enzyme dans lequel le composé n'est ajouté qu'en fin d'incubation) ont été réalisés en parallèle. Le contrôle […] permet de vérifier l'absorption non spécifique de la fluorescence par le composé et donc la spécificité de l'inhibition observée dans la condition test correspondante.
as §1
A la fin de l'incubation, la fluorescence produite suite à la dégradation du substrat est mesurée par fluorimétrie pour une longueur d'onde d'excitation de 328 nm et une longueur d'onde d'émission de 393 nm, au moyen du dispositif SpectroMax Gemini, Molecular Devices.
Le % d'inhibition des MMPs totales est calculé pour chaque échantillon testé. Les résultats obtenus sont montrés dans le tableau 6 ci-après. Tableau 6 - Inhibition de l'activité des MMP totales par le principe actif E2 conforme à l'invention

The structures appear in SMILES notation.

In general, inhibition refers to the share of the control response that was lost under treatment. In general, % inhibition refers to the share of the control response that was lost under treatment.

For the compound `CCCCCCCCCCCCCCCC(=O)OC[C@H](O)[C@H]1OC(=O)C(O)=C1O` [APA, acide 6-O-palmitoylascorbique], 300 µg/mL produced 79% inhibition in test [1]. Moreover, the activity at 300 µg/mL in test [1] (read-out: Activité hyaluronidase (%)) was 21%.

Regarding `O=C1O[C@H]([C@@H](O)CO)C(O)=C1O` [Vitamine C], in test [2] (10 mg/ml), at 10000 µg/mL the inhibition was 71%.

`CCCCCCCCCCCCCCCC(=O)OC[C@H](O)[C@H]1OC(=O)C(O)=C1O` [Palmitate d'ascorbyle, palmitate d'ascorbyle]: the inhibition at 200 µg/mL in test [2] (200 µg/ml) was determined as 80%.

In the case of `COc1ccc(O)c(C(C)(C)C)c1` [BHA, 3-tert-butyl-4-hydroxyanisole], the “% inhibition” value in test [3] is given as 60%.

For the compound `c1cnc2c(c1)ccc1cccnc12` [O-Phénanthroline], the “% inhibition” value was determined as 15% in the test with MMP totales (0,1 mM, 100 µM); 1% in the test with MMP totales (0,03 mM, 30 µM); 73% in the test with MMP totales (0,3 mM, 300 µM); 97% with MMP totales (1 mM).
